Measured values from PubChem BioAssay AID1963958 (Molecular Pharmacology Branch, DTP, NCI, 2024).
pIC50: −log10 of the molar value. Values belong to the molecule of their own block, whether it stands above or below them.

Tested on: MDA-MB-231 multicell spheroids, viability
Test: Anticancer human tumor MDA-MB-231 cell line growth inhibition [PI3K];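 note: spheroids exposed to agents for seven days before reading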;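 for viability, T/C: percent of vehicle control luminescence with DMSO treated spheroids as 100%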
Details: for pIC50: curve of first compound; for viability, T/C: stronger effect = lower value
Method in brief: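 Stroma-containing spheroids: tumor line, pooled-donor HUVEC, hMSC. Treatments: targeted agents with PI3K inhibitors. Dosing: clinically relevant, half-log spacing, 10 microM ceiling without known Cmax. Read-out: cell viability.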

[1] = second compound 0.0316 µM, first compound 0.0316 µM
[2] = second compound 0.0316 µM, first compound 0.1 µM
[3] = second compound 0.1 µM, first compound 0.0316 µM
[4] = second compound 0.1 µM, first compound 0.1 µM
[5] = second compound 0.316 µM, first compound 0.0316 µM
[6] = second compound 0.316 µM, first compound 0.1 µM
[7] = second compound 1 µM, first compound 0.0316 µM
[8] = second compound 1 µM, first compound 0.1 µM
[9] = second compound 3.16 µM, first compound 0.0316 µM
[10] = second compound 3.16 µM, first compound 0.1 µM
[11] = second compound 10 µM, first compound 0.0316 µM
[12] = second compound 10 µM, first compound 0.1 µM

- pIC50 (second compound 0.0316 µM): 7.16
- pIC50 (second compound 0.1 µM): 7.28
- pIC50 (second compound 0.316 µM): 7.56
- pIC50 (second compound 1 µM): 7.66
- pIC50 (second compound 3.16 µM): 7.72
- pIC50 (second compound 10 µM): 7.82
Structure (SMILES): CC(=O)c1c(C)c2cnc(Nc3ccc(N4CCNCC4)cn3)nc2n(C2CCCC2)c1=O + Cc1nc(NC(=O)N2CCCC2C(N)=O)sc1-c1ccnc(C(C)(C)C(F)(F)F)c1
- viability, T/C (second compound 0.0316 µM, first compound 0.000316 µM): 98.2%
- viability, T/C (second compound 0.0316 µM, first compound 0.001 µM): 87.3%
- viability, T/C (second compound 0.0316 µM, first compound 0.00316 µM): 92.4%
- viability, T/C (second compound 0.0316 µM, first compound 0.01 µM): 82.7%
- viability, T/C [1]: 66.3%
- viability, T/C [2]: 42.5%
- viability, T/C (second compound 0.1 µM, first compound 0.000316 µM): 79.2%
- viability, T/C (second compound 0.1 µM, first compound 0.001 µM): 85.5%
- viability, T/C (second compound 0.1 µM, first compound 0.00316 µM): 81.4%
- viability, T/C (second compound 0.1 µM, first compound 0.01 µM): 73.4%
- viability, T/C [3]: 59.7%
- viability, T/C [4]: 37.8%
- viability, T/C (second compound 0.316 µM, first compound 0.000316 µM): 73.8%
- viability, T/C (second compound 0.316 µM, first compound 0.001 µM): 72.8%
- viability, T/C (second compound 0.316 µM, first compound 0.00316 µM): 71.8%
- viability, T/C (second compound 0.316 µM, first compound 0.01 µM): 60.9%
- viability, T/C [5]: 48.8%
- viability, T/C [6]: 34%
- viability, T/C (second compound 1 µM, first compound 0.000316 µM): 70.5%
- viability, T/C (second compound 1 µM, first compound 0.001 µM): 64.9%
- viability, T/C (second compound 1 µM, first compound 0.00316 µM): 63%
- viability, T/C (second compound 1 µM, first compound 0.01 µM): 59%
- viability, T/C [7]: 46%
- viability, T/C [8]: 29.6%
- viability, T/C (second compound 3.16 µM, first compound 0.000316 µM): 67.2%
- viability, T/C (second compound 3.16 µM, first compound 0.001 µM): 66.6%
- viability, T/C (second compound 3.16 µM, first compound 0.00316 µM): 61.1%
- viability, T/C (second compound 3.16 µM, first compound 0.01 µM): 56.3%
- viability, T/C [9]: 44.8%
- viability, T/C [10]: 33.2%
- viability, T/C (second compound 10 µM, first compound 0.000316 µM): 64%
- viability, T/C (second compound 10 µM, first compound 0.001 µM): 60.9%
- viability, T/C (second compound 10 µM, first compound 0.00316 µM): 58.4%
- viability, T/C (second compound 10 µM, first compound 0.01 µM): 52.4%
- viability, T/C [11]: 45.1%
- viability, T/C [12]: 31%

- pIC50 (second compound 0.0316 µM): 5.48
- pIC50 (second compound 0.1 µM): 5.57
- pIC50 (second compound 0.316 µM): 5.72
- pIC50 (second compound 1 µM): 5.72
- pIC50 (second compound 3.16 µM): 5.74
- pIC50 (second compound 10 µM): 5.61
Structure (SMILES): Cn1ncc(Cl)c1-c1cc(C(=O)NC(CN)Cc2cccc(F)c2)sc1Cl (centres undefined) + Cc1nc(NC(=O)N2CCCC2C(N)=O)sc1-c1ccnc(C(C)(C)C(F)(F)F)c1
- viability, T/C [1]: 104%
- viability, T/C [2]: 89.2%
- viability, T/C (second compound 0.0316 µM, first compound 0.316 µM): 82.9%
- viability, T/C (second compound 0.0316 µM, first compound 1 µM): 71.8%
- viability, T/C (second compound 0.0316 µM, first compound 3.16 µM): 49.9%
- viability, T/C (second compound 0.0316 µM, first compound 10 µM): 28.8%
- viability, T/C [3]: 86.6%
- viability, T/C [4]: 83.3%
- viability, T/C (second compound 0.1 µM, first compound 0.316 µM): 81%
- viability, T/C (second compound 0.1 µM, first compound 1 µM): 66.2%
- viability, T/C (second compound 0.1 µM, first compound 3.16 µM): 47.8%
- viability, T/C (second compound 0.1 µM, first compound 10 µM): 24.4%
- viability, T/C [5]: 76%
- viability, T/C [6]: 80.8%
- viability, T/C (second compound 0.316 µM, first compound 0.316 µM): 70.5%
- viability, T/C (second compound 0.316 µM, first compound 1 µM): 64.8%
- viability, T/C (second compound 0.316 µM, first compound 3.16 µM): 38.8%
- viability, T/C (second compound 0.316 µM, first compound 10 µM): 25.1%
- viability, T/C [7]: 67.7%
- viability, T/C [8]: 72.3%
- viability, T/C (second compound 1 µM, first compound 0.316 µM): 64.3%
- viability, T/C (second compound 1 µM, first compound 1 µM): 57%
- viability, T/C (second compound 1 µM, first compound 3.16 µM): 44.4%
- viability, T/C (second compound 1 µM, first compound 10 µM): 24.5%
- viability, T/C [9]: 72.1%
- viability, T/C [10]: 66.6%
- viability, T/C (second compound 3.16 µM, first compound 0.316 µM): 66.7%
- viability, T/C (second compound 3.16 µM, first compound 1 µM): 57.6%
- viability, T/C (second compound 3.16 µM, first compound 3.16 µM): 42.7%
- viability, T/C (second compound 3.16 µM, first compound 10 µM): 26.6%
- viability, T/C [11]: 69%
- viability, T/C [12]: 62%
- viability, T/C (second compound 10 µM, first compound 0.316 µM): 57.9%
- viability, T/C (second compound 10 µM, first compound 1 µM): 60.4%
- viability, T/C (second compound 10 µM, first compound 3.16 µM): 48%
- viability, T/C (second compound 10 µM, first compound 10 µM): 23.5%
